Test results: patent publication US4730054A, “Imidazole thieno-benzothiepins” (SPOFA, Spojene Podinky Pro Zdravotnickou Vyrobu, priority 1985, dated 1988)
≈ marks a conversion by molar mass, not a printed value.

Legend:
[1] = tested on: C albicans; assay: MIC by standard dilution method in a liquid nutrient medium; format: cell-based; details: Candida albicans, inoculum 10^4 CFU/ml, read-out: Antimycotic Activity (MIC)
Description: (§1) For example, the new compounds were compared in vitro with the known antimycotic agents clotrimazole, miconazole and ketoconazole, in order to determine their minimum inhibitive concentrations (MICs). See, Fromtling, R. A., "Imidazoles as medically important antifungal agents: an overview," 20 Drugs of Today No. 7, 328-331 (1984); Burgess & Bodey, "Clotrimazole," 2 Antimicrobial Agents and Chemotherapy No. 6, 423-6 (1972). […] The test innoculum size was 10^6 CFU/ml for Aspergillus niger and Trichophyton mentagrophytes and 10^4 CFU/ml for Saccharomuces pastorianus and Candida albicans, where CFU is the standard abbreviation for microbial cell counts.

[2] = tested on: A niger; assay: as above; format: cell-based; details: Aspergillus niger, inoculum 10^6 CFU/ml, read-out: Antimycotic Activity (MIC)
Description: as §1

[3] = tested on: T mentagrophytes; assay: as above; format: cell-based; details: Trichophyton mentagrophytes, inoculum 10^6 CFU/ml, read-out: Antimycotic Activity (MIC)
Description: as §1

[4] = tested on: S pastorianus; assay: as above; format: cell-based, Saccharomuces pastorianus; details: inoculum 10^4 CFU/ml, read-out: Antimycotic Activity (MIC)
Description: as §1

[5] = tested on: pathogenic molds as well as yeasts and related microorganisms; assay: Effect of addition of serum or blood to the agar test plate on antimycotic effect, Sabouraud agar; format: cell-based; details: for effect of addition of serum or blood to the agar test plate: in comparison to the protein-free agar culture values; for potency in the presence of biological protein substances: such as blood constituents
Description: (§2) The sensitivity of a larger number of clinical strain isolates of pathogenic molds (a total of 16) as well as yeasts and related microorganisms (a total of 21) when exposed to the inventive compounds was determined using the dilution method on Sabouraud agar. Thus, the experimental MIC values for mold strains exposed to Compound Ia were from 0.7 to 100 mg/l.

[6] = tested on: clinical strain isolates of pathogenic molds (a total of 16); assay: Sensitivity of clinical mold strain isolates, dilution method on Sabouraud agar; format: cell-based; details: 16 clinical mold strains
Description: as §2

[7] = tested on: Candida albicans; assay: Vaginal candidosis induced experimentally in mice, intravaginal administration; format: in vivo, Candida albicans (in mice); details: for inhibition of the test culture: ten days
Description: The in vivo evaluation of antimycotic activity was performed using a model of vaginal candidosis induced experimentally in mice by Candida albicans. The test substances were administered intravaginally over a period of ten days in the form of homogenized suspensions of appropriately chosen concentrations in a 0.5% aqueous hydroxyethylcellulose solution. The results were evaluated both immediately upon administration and after one and two weeks.

[8] = Chronic (one month) toxicity on intravaginal administration, dog; format: in vivo
[9] = Standard test for foetal damage; details: standard tests
[10] = Standard test for mutagenity; details: standard tests
[11] = tested on: Aspergillus strains; assay: Antimycotic activity against Aspergillus strains compared with clotrimazole and miconazole; format: cell-based
Description: (§3) For example, the new compounds were compared in vitro with the known antimycotic agents clotrimazole, miconazole and ketoconazole, in order to determine their minimum inhibitive concentrations (MICs). See, Fromtling, R. A., "Imidazoles as medically important antifungal agents: an overview," 20 Drugs of Today No. 7, 328-331 (1984); Burgess & Bodey, "Clotrimazole," 2 Antimicrobial Agents and Chemotherapy No. 6, 423-6 (1972). MIC values were determined by the standard dilution method in a liquid nutrient medium, primarily with the following yeast and mold species typically used in preliminary antimycotic screening: Saccharomuces pastorianus, Candida albicans, Trichophyton mentagrophytes, and Aspergillus niger. The test innoculum size was 10^6 CFU/ml for Aspergillus niger and Trichophyton mentagrophytes and 10^4 CFU/ml for Saccharomuces pastorianus and Candida albicans, where CFU is the standard abbreviation for microbial cell counts.

[12] = Standard test for vaginal irritation; format: in vivo; details: standard tests
[13] = tested on: typical inducers of dermal mycoses; assay: Antimycotic activity against typical inducers of dermal mycoses compared with clotrimazole and miconazole; format: cell-based
Description: as §3

[14] = Standard test for teratogenity; details: standard tests
[15] = Standard test for cancerogenity; details: standard tests
[16] = tested on: about forty pathogenic yeast and mold strains; assay: MIC in dilution tests on Sabouraud agar, about forty pathogenic yeast and mold strains; format: cell-based
Description: The sensitivity of a larger number of clinical strain isolates of pathogenic molds (a total of 16) as well as yeasts and related microorganisms (a total of 21) when exposed to the inventive compounds was determined using the dilution method on Sabouraud agar.

[17] = Chronic (one month) toxicity on intravaginal administration, rat; format: in vivo
[18] = Acute toxicity LD50 in rats p.o.; details: for LD50: rat, in vivo, po
[19] = Standard test for dermal irritation; format: in vivo; details: standard tests

SMILES | MIC [1] [µg/mL] | MIC [2] [µg/mL] | MIC [3] [µg/mL] | MIC [4] [µg/mL] | effect of addition of serum or blood to the agar test plate [5] | potency in the presence of biological protein substances [5] | MIC [6] [µg/mL] | further results
CC(=O)N1CCN(c2ccc(OCC3COC(Cn4ccnc4)(c4ccc(Cl)cc4Cl)O3)cc2)CC1 (centres unmarked) [Ketoconazole] | 0.03 (≈ 0.0565 µM) | 12.5 (≈ 23.5 µM) | 0.7 (≈ 1.32 µM) | 50 (≈ 94.1 µM) | – | – | – | –
c1ccc2c(c1)CSc1sccc1C2n1ccnc1 (centres unmarked) [Compound Ia, 4-(1-imidazolyl)-4,9-dihydrothieno(2,3-c)-2-benzothiepin] | 25 (≈ 87.9 µM) | 0.7 (≈ 2.46 µM) | 1.5 (≈ 5.27 µM) | 25 (≈ 87.9 µM) | doubled the effect | actually improved | 0.7 to 100 (≈ 2.46 to 352 µM) | prophylactic (preventative) effect ([7]; intravaginal, concentration of 7.5%): significant prophylactic (preventative) effect; inhibition of the test culture ([7]; intravaginal, concentration of 7.5%, therapy starting 24 hours prior to infection): complete inhibition; inhibition of the test culture ([7]; intravaginal, concentration of 7.5%, therapy starting simultaneously with infection): complete inhibition; results when therapy was delayed ([7]; intravaginal, therapy delayed until 24 hours after infection): somewhat less favorable
Clc1ccccc1C(c1ccccc1)(c1ccccc1)n1ccnc1 [Clotrimazole] | 0.7 (≈ 2.03 µM) | 3.1 (≈ 8.99 µM) | 0.03 (≈ 0.087 µM) | 3.1 (≈ 8.99 µM) | diminished the effect of clotrimazole about one third | – | 0.01 to 1.5 (≈ 0.029 to 4.35 µM) | –
Clc1ccc2c(c1)C(n1ccnc1)c1ccsc1SC2 (centres unmarked) [Compound Ib, 6-chloro-4-(1-imidazolyl)-4,9-dihydrothieno(2,3-c)-2-benzothiepin] | 3.1 (≈ 9.72 µM) | 0.03 (≈ 0.0941 µM) | 0.03 (≈ 0.0941 µM) | 12.5 (≈ 39.2 µM) | had no effect | not diminished | 0.01 to 1.5 (≈ 0.0314 to 4.7 µM) | chronic (one month) toxicity [8]: negative; foetal damage [9]: negative; mutagenity [10]: negative; activity against Aspergillus strains [11]: notably increased activity; vaginal irritation [12]: negative; therapeutic effect on vaginal Candida albicans infections ([7]; topical application): beneficial therapeutic effect; level of activity against typical inducers of dermal mycoses [13]: similarly potent level of activity; teratogenity [14]: negative; cancerogenity [15]: negative; Minimum MIC values [16]: 0.01 to 25 µg/mL; chronic (one month) toxicity [17]: negative; LD50 ([18]; LD50, female rats): 1120 mg/kg; LD50 ([18]; LD50, male rats): 1570 mg/kg; toxicity ([18]; rats): only slightly toxic; dermal irritation [19]: negative
Clc1ccc(COC(Cn2ccnc2)c2ccc(Cl)cc2Cl)c(Cl)c1 (centres unmarked) [Miconazole] | 0.7 (≈ 1.68 µM) | 1.5 (≈ 3.6 µM) | 0.03 (≈ 0.0721 µM) | 6.2 (≈ 14.9 µM) | – | – | – | –
